Series [1] addresses glycosyltransferase (PBP 1b) (Escherichia coli, UniProt P02919). The series can be described thus: glycosyltransferase assay: displacement of 3H-moenomycin from the glycosyltransferase (PBP 1b)/3H-moenomycin complex. The conditions noted are these: displacement of 3H-moenomycin from PBP 1b; read-out: inhibitory constants (IC50 values) in the glycosyltransferase assay. In kind it is binding. The source says:
Table 1 summarizes, by way of example, the inhibitory concentrations (IC50) of some compounds of the invention. A special test system was used for finding glycosyltransferase inhibitors that are specific and very effective. This system uses a glycosyltransferase/^3H-moenomycin complex, which is brought into contact with substances that are to be tested. The determination of the GT-inhibitory effect is based on the displacement of radioactively labeled moenomycin A from the glycosyltransferase (PBP 1b)/^3H-moenomycin complex, it being possible to separate the released ^3H-moenomycin, as a soluble compound, from the fixed complex and to measure the remaining radioactivity using a Geiger counter.
The assay was carried out as described by Vollmer & Höltje (Antimicrobial Agents and Chemotherapy 2000, 44, 1181-1185), except that purified penicillin-binding protein 1b (PBP 1b; 5 pM), carrying ^3H-labeled moenomycin at the glycosyltransferase site, was used in the present example instead of [3H]benzylpenicillin. ^3H-Moenomycin was obtained from moenomycin A (Kurz et al., Eur. J. Biochem., 1998, 252, 500-507) by hydrogenating it with ^3H2:
6 mg of moenomycin, dissolved in 300 μL methanol, were added to a 1 cm^3 flask, after which 2 mg of palladium-charcoal (Degussa Type E10N/D) were added. The flask was then gassed, while excluding air, with 1 cm^3 3H2; and the reaction solution was left to hydrogenate for 15 minutes. After the reaction had come to an end, the catalyst was filtered off from the reaction mixture, which was diluted to 100 mL with ethanol. This solution can be used directly for preparing the glycosyltransferase/^3H-moenomycin complex. Total radioactivity of the reaction product: 6.56 GBq (177 mCi); specific activity: 1.9 TBq/mmol. The radioactive complex was attached to SPA PVT Copper His-Tag beads. The radioactive moenomycin that was displaced by the inhibitors was measured. • SPA PVT Copper His-Tag beads: Amersham RPN 0095; • PBS: GIBCO BRL 14200-067; • BSA: Calbiochem 12657; • NOG: SIGMA O-8001 (n-octyl β-D-glucopyranoside); • Tween 20: Acros 23336-067; • Microtiter plates: Greiner Labortechnik.
The determination was carried out in microtiter plates. 10 μL of the test solution were added to the microtiter plates, followed by 10 μL of ^3H-moenomycin (25 nM, 3.1 kBq/well) and 40 μL of SPA beads loaded with PBP 1b (100 μg of beads, 45 nM enzyme). The plates were sealed and left to stand at room temperature for 8 hours. After that, the beads were separated off from the test solution by centrifuging for 3 minutes at 1300 rpm. The distribution of the radioactivity was measured in a WALLAC MicroBeta® 1450 Counter.
The inhibitory values were calculated in accordance with the formula: [1−(cpmsample−cpmlow ctr)/(cpmhigh ctr−cpmlow ctr)]×100(%).
(Loss of bound radioactivity is the signal in a displacement assay; it reports binding, not function.)

Series [2] can be described thus: solubility (description of the substance). In kind it is physicochemical. As to conditions: for solubility in organic solvents: medium-polar and polar organic solvents.
Series [3] is described as follows: stability (description of the substance). In kind it is physicochemical. As to conditions: for stability in solution depending on pH: neutral, mildly acidic, strongly acidic, strongly alkaline media.
The conditions of series [4]: cited from earlier work.
For another series, the system named is Bacillus subtilis. The conditions noted are these: against Bacillus subtilis; cited from earlier work.

pIC50: −log10 of the molar value.

glycosyltransferase (PBP 1b), sequence (P02919 whole entry): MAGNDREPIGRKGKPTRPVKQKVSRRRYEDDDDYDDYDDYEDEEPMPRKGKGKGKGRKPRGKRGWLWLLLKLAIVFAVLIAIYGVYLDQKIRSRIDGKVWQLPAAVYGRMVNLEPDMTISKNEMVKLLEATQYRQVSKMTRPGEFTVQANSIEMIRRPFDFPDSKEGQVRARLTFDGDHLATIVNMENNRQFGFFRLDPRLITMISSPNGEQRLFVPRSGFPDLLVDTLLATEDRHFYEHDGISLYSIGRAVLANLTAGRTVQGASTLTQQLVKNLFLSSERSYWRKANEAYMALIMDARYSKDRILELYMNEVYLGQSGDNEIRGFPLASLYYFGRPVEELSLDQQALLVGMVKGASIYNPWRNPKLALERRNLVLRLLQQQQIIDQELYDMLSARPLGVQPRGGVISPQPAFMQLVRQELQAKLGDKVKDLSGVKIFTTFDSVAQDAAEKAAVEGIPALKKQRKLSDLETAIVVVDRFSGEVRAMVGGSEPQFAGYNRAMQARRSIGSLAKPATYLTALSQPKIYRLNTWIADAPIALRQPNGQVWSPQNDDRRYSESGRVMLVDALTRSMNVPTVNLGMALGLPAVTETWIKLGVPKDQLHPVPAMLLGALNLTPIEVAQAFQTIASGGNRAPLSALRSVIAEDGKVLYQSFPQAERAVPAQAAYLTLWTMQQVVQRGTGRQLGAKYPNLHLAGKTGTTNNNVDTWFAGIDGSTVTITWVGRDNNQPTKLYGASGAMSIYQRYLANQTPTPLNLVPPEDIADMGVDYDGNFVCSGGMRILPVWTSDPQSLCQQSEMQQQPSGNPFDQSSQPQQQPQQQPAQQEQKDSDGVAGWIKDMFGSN

Regarding `CC(O)C(O)/C=C/C=C/C=C/c1ccccc1/C=C/C=C/C(=O)O` (stereo not drawn) [serpentemycin D], the negative-log IC50 (pIC50) in series [1] was 4.72. Moreover, in series [2], the “solubility in organic solvents” value was “soluble in medium-polar and polar organic solvents”; the solubility in water entry is “not particularly soluble in water”. In addition, in series [3], the “sensitivity to light and air” value was “sensitive to light and air”; the “stability in solution depending on pH” value is “stable in neutral and mildly acidic media but unstable in strongly acidic and strongly alkaline solution”.
With moenomycin, the “absorption from the gastrointestinal tract” value in series [4] is on record as “not absorbed from the gastrointestinal tract”.
On to `O=C(O)/C=C/C=C\C=C\C=C/c1ccccc1/C=C/C=C/C(=O)O` [serpentemycin A], for which the pIC50 in series [1] is 6.70. In series [2], the “solubility in organic solvents” value was “soluble in medium-polar and polar organic solvents”; the solubility in water entry was “not particularly soluble in water”. Also, in series [3], the “sensitivity to light and air” value was “sensitive to light and air”; the “stability in solution depending on pH” value is “stable in neutral and mildly acidic media but unstable in strongly acidic and strongly alkaline solution”.
In the case of `C/C=C/C=C\C=C\C=C/c1ccccc1/C=C/C=C/C(=O)O` [serpentene, reference compound], the pIC50 in series [1] was 4.74. The antibiotic effect result with Bacillus subtilis is recorded as “weak antibiotic effect”.
As for `O=C(O)/C=C/C=C/C=C\c1ccccc1/C=C/C=C/C(=O)O` [serpentemycin B], the pIC50 in series [1] was 7.00. Besides, in series [2], the “solubility in organic solvents” value is “soluble in medium-polar and polar organic solvents”; the solubility in water result is reported as “not particularly soluble in water”. In series [3], the “sensitivity to light and air” value is “sensitive to light and air”; the “stability in solution depending on pH” value is “stable in neutral and mildly acidic media, but unstable in strongly acidic and strongly alkaline solution”.

In general, pIC50 refers to −log10 of the IC50, conventionally taken in molar units.

Source of the values: patent US7259276B2, “Polyenecarboxylic acid derivatives, processes for preparing them, and their use” (Sanofi-Aventis Deutschland GmbH, priority 2002, dated 2007).
